Experimental data: US20040005537A1, “Method of identifying toxic agents using differential gene expression” (priority 2000, published 2004)

Experiments:
[1] = system: rat heart tissue; experiment: GENECALLING differential gene expression analysis after dosing of serotonin modulating agents; format: in vivo, Sprague Dawley rats
Description: Control animals received sterile water or canola oil. The animals were sacrificed 24 hours following the last dose. Liver tissue was dissected from the animals, and total RNA was recovered from the dissected tissue. cDNA was prepared and the resulting samples were processed through using GENECALLING™ differential expression analysis as described in U.S. Pat. No. 5,871,697 and in Shimkets et al., Nature Biotechnology 17:798-803 (1999). The contents of these patents and publications are incorporated herein by reference in their entirety.
Thousands of gene fragments were initially found to be differentially expressed in rat heart tissue in response to serotonin modulating agents in. Genes fragments whose expression levels were modulated greater than ±1.5-fold were selected for further analysis.
Column 6 of Table 1, entitled “Function”, lists the type of classification assigned for the protein, based on its function. The 210 single nucleic acid sequences identified herein, are referred to herein as CARDIOTOX 1-210.

[2] = grouping used to generate the distinguishing gene profiles; cited from earlier work

## CNS(=O)(=O)Cc1ccc2[nH]cc(CCN(C)C)c2c1 [sumatriptan]
[1]; CARDIOTOX 72
  Effects on Transcription Level: Novel gene fragment, 445 bp, 85% SI to human skeletal muscle alpha 2 actinin [M86406]: 5.7 fold
[1]; CARDIOTOX 73
  Effects on Transcription Level: Novel gene fragment, 246 bp, 89% SI to mouse ponsin-1 [AF078667]: −3.2 fold
[1]; CARDIOTOX 74
  Effects on Transcription Level: Novel gene fragment, 126 bp, 77% SI to human DNA sequence from cosmid V311G7, between markers DXS366 and DXS87 on chromosome X [Z69304]: +2.1 fold
[1]; CARDIOTOX 75
  Effects on Transcription Level: Novel gene fragment, 370 bp: −2.7 fold
[1]; CARDIOTOX 76
  Effects on Transcription Level: Novel gene fragment, 337 bp, 78% SI to novel human protein AHNAK [M80899]: −4.3 fold
[1]; CARDIOTOX 77
  Effects on Transcription Level: Novel gene fragment, 100 bp, 93% SI to human KIAA0750 protein [ABO18293]: −9.3 fold
[1]; CARDIOTOX 78
  Effects on Transcription Level: Novel gene fragment, 44 bp: −5.4 fold
[1]; CARDIOTOX 79
  Effects on Transcription Level: Novel gene fragment, 698 bp, 93% SI to mouse plenty-of-prolines-101 [AF062655]: −2.3 fold
[1]; CARDIOTOX 80
  Effects on Transcription Level: Novel gene fragment, 660 bp, 84% SI to mouse membrane protein TMS-2 [AF181685]: −3.8 fold
[1]; CARDIOTOX 81
  Effects on Transcription Level: Novel gene fragment, 115 bp: −4.1 fold
[1]; CARDIOTOX 82
  Effects on Transcription Level: Novel gene fragment, 294 bp, 95% SI to mouse Ndr1 related protein Ndr2 [AB033921]: −2.0 fold
[1]; CARDIOTOX 83
  Effects on Transcription Level: Novel gene fragment, 198 bp: +2.5 fold
[1]; CARDIOTOX 84
  Effects on Transcription Level: Novel gene fragment, 730 bp, 86% SI to mouse E800 [Y10968]: −2.8 fold
[1]; CARDIOTOX 85
  Effects on Transcription Level: Novel gene fragment, 294 bp, 98% SI to cysteine conjugate beta-lyase [S61960]: −2.8 fold
[1]; CARDIOTOX 86, GenBank A1243266
  Effects on Transcription Level: Aconitase: −1.9 fold
[1]; CARDIOTOX 87, GenBank M17422
  Effects on Transcription Level: Ribosomal protein L7: +2.5 fold
[1]; CARDIOTOX 88, GenBank X51706
  Effects on Transcription Level: Ribosomal protein L9: +10.1 fold
[1]; CARDIOTOX 89, GenBank X53504
  Effects on Transcription Level: Ribosomal protein L12: −1.5 fold
[1]; CARDIOTOX 90, GenBank V01270
  Effects on Transcription Level: 18S, 5.8S, and 28S ribosomal RNA's: +5 fold
[1]; CARDIOTOX 91, GenBank U10357
  Effects on Transcription Level: Pyruvate dehydrogenase kinase 2 (PDK2): −6.10 fold
[1]; CARDIOTOX 92, GenBank J03179
  Effects on Transcription Level: D-Binding Protein (DBP): −1.4 fold
[1]; CARDIOTOX 93, GenBank L03294
  Effects on Transcription Level: Lipoprotein lipase: −2.2 fold
[1]; CARDIOTOX 94, GenBank X02610
  Effects on Transcription Level: Non-neuronal enolase: +3.5 fold
[1]; CARDIOTOX 95, GenBank L10669
  Effects on Transcription Level: Glycogen phosphorylase (muscle isozyme): −2.6 fold
[1]; CARDIOTOX 96, GenBank X14209
  Effects on Transcription Level: Cytochrome c oxidase subunit IV: +10.0 fold
[1]; CARDIOTOX 97, GenBank M17083
  Effects on Transcription Level: Alpha-globin: +3.8 fold
[1]; CARDIOTOX 98, GenBank X06701
  Effects on Transcription Level: Beta-globin: +3.11 fold
[1]; CARDIOTOX 99, GenBank AF197916
  Effects on Transcription Level: Myoglobin: +4.7 fold
[1]; CARDIOTOX 100, GenBank L38717
  Effects on Transcription Level: Titin: −2.1 fold
[1]; CARDIOTOX 101, GenBank V01218
  Effects on Transcription Level: Skeletal muscle actin: −18.3 fold
[1]; CARDIOTOX 102, GenBank M11851
  Effects on Transcription Level: Myosin light chain 2 (MLC2): +2.2 fold
[1]; CARDIOTOX 103, GenBank X15938
  Effects on Transcription Level: Alpha cardiac myosin heavy chain: −3.5 fold
[1]; CARDIOTOX 104, GenBank U77354
  Effects on Transcription Level: Troponin I: +1.8 fold
[1]; CARDIOTOX 105, GenBank AF001334
  Effects on Transcription Level: Cardiac calsequestrin: −2.9 fold
[1]; CARDIOTOX 106, GenBank M16975
  Effects on Transcription Level: Sulfated glycoprotein 2: −1.6 fold
[1]; CARDIOTOX 107, GenBank AB000507
  Effects on Transcription Level: Aquaporin 7: +1.5 fold
[1]; CARDIOTOX 108, GenBank X97831
  Effects on Transcription Level: Carnitine/acylcarnitine carrier protein: −2.5 fold
[1]; CARDIOTOX 109, GenBank U40628
  Effects on Transcription Level: Glu-Pro Dipeptide Repeat: −6.2 fold
[1]; CARDIOTOX 110, GenBank X54737
  Effects on Transcription Level: Cystatin beta: +2.5 fold
[1]; CARDIOTOX 111
  Effects on Transcription Level: Novel gene fragment, 593 bp, 90% SI to human calcineurin B-like protein [Z08983]: +1.10 fold
[1]; CARDIOTOX 112
  Effects on Transcription Level: Novel gene fragment, 179 bp, 88% SI to human titin [X90568]: −3.1 fold
[1]; CARDIOTOX 113
  Effects on Transcription Level: Novel gene fragment, 700 bp, 91% SI to mouse periplakin (PPL) [AF116523]: +2.5 fold
[1]; CARDIOTOX 114, GenBank J05029
  Effects on Transcription Level: Long chain acyl-CoA dehydrogenase (LCAD): +1.7 fold
[1]; CARDIOTOX 115, GenBank M19936
  Effects on Transcription Level: Sulfated glycoprotein 1 (SGP-1): −1.8 fold
[1]; CARDIOTOX 116, GenBank M11670
  Effects on Transcription Level: Catalase: +2.1 fold
[1]; CARDIOTOX 117, GenBank AF084186
  Effects on Transcription Level: Alpha-fodrin (A2A) (Nonerythroid spectrin alpha subunit): −1.7 fold
[1]; CARDIOTOX 118, GenBank M27902
  Effects on Transcription Level: Cardiac specific sodium channel alpha-subunit: −2.0 fold
[1]; CARDIOTOX 119, GenBank U40628
  Effects on Transcription Level: Glu-Pro Dipeptide Repeat: +4.2 fold
[1]; CARDIOTOX 120
  Effects on Transcription Level: Novel gene fragment, 200 bp, 64% SI to human KIAA0733 protein [AB018316]: −1.6 fold
[1]; CARDIOTOX 121, GenBank L42855
  Effects on Transcription Level: RNA polymerase II transcription factor SIII (p18 subunit): +2.1 fold
[1]; CARDIOTOX 122, GenBank L01702
  Effects on Transcription Level: Protein-tyrosine phosphalase (LRP): +1.8 fold
[1]; CARDIOTOX 123, GenBank U25264
  Effects on Transcription Level: Skeletal muscle selenoprotein W (SelW): −1.6 fold
[1]; CARDIOTOX 124, GenBank X15635
  Effects on Transcription Level: Sarcoplasmic reticulum 2+-Ca-ATPase: −2.1 fold
[1]; CARDIOTOX 125, GenBank X53377
  Effects on Transcription Level: Ribosomal protein S7: +1.7 fold
[1]; CARDIOTOX 126, GenBank X05300
  Effects on Transcription Level: Ribophorin I: +2.0 fold
[1]; CARDIOTOX 127, GenBank X15939
  Effects on Transcription Level: Beta cardiac myosin heavy chain: +2.2 fold
[1]; CARDIOTOX 128, GenBank L12380
  Effects on Transcription Level: ADP-ribosylation factor 1: +1.3 fold
[1]; CARDIOTOX 129, GenBank U04942
  Effects on Transcription Level: Laminin receptor: +2.6 fold
[1]; CARDIOTOX 130
  Effects on Transcription Level: Novel gene fragment, 206 bp, 89% SI to human seryl-tRNA synthetase [X91257]: +1.8 fold
[1]; CARDIOTOX 131, GenBank X86086
  Effects on Transcription Level: Annexin VI: −09.0 fold
[1]; CARDIOTOX 132
  Effects on Transcription Level: Novel gene fragment, 325 bp, 90% SI to mouse N-RAP [U76618]: +1.7 fold
[1]; LD10 dose for three days
  Effects on Transcription Level: Novel gene fragment, 61 bp (CARDIOTOX 134): −3 fold
  Effects on Transcription Level: Novel gene fragment, 337 bp (CARDIOTOX 133): −2.1 fold
  Effects on Transcription Level: Novel gene fragment, 378 bp, 88% SI to human coatomer protein (COPA) [U24105] (CARDIOTOX 138): −2.1 fold
[1]; LD10 dose for three days, GenBank D16479
  Effects on Transcription Level: Long chain 3-ketoacyl-CoA thiolase (CARDIOTOX 136): −1.5 fold
[1]; LD10 dose for three days, GenBank D87671
  Effects on Transcription Level: TATA-binding protein interacting protein 120 (TIP120) (CARDIOTOX 135): +2.4 fold
[1]; LD10 dose for three days, GenBank D88250
  Effects on Transcription Level: Serine protease (CARDIOTOX 139): +1.7 fold
[1]; LD10 dose for three days, GenBank M34043
  Effects on Transcription Level: Thymosin beta-4 (CARDIOTOX 137): +1.4 fold
[1]; LD10 dose for three days, GenBank X86086
  Effects on Transcription Level: Annexin VI (no CARDIOTOX assignment given): −5.1 fold
[2]
  classification as cardiotoxic or noncardiotoxic serotonin modulating agent: noncardiotoxic
